Laboratory results published in PubChem BioAssay AID2060500 (Molecular Pharmacology Branch, DTP, NCI, 2025).
pIC50: −log10 of the molar value.

Tested on: 596521-263-R-J1-PDC complex spheroids, viability % of control
Assay: Anticancer human tumor 596521-263-R-J1-PDC patient-derived soft tissue sarcoma cell line growth inhibition [GQUAD]
Conditions: for pIC50: curve of first compound; for viability, T/C: stronger effect = lower value
In short: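 Tumor cells were grown as complex spheroids with HUVEC endothelial cells and mesenchymal stem cells as stroma. G-quadruplex stabilizers were combined with targeted agents over half-log dilutions from near the clinical Cmax, or from 10 microM.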
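Also: spheroids exposed to drugs for 7 days before viability reading.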
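For viability, T/C in this document: 100% = DMSO vehicle control viability.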

CC1COCCN1c1cc(C2(S(C)(=N)=O)CC2)nc(-c2ccnc3[nH]ccc23)n1 (configuration not stated) + Cc1cnc(CNC(=O)c2c(=O)c3ccc(N4CCCN(C)CC4)nc3n3c2sc2ccccc23)cn1
pIC50 (second compound 0.0316 µM): 5.05 | pIC50 (second compound 0.1 µM): 5.19 | pIC50 (second compound 0.316 µM): < 5.00 | pIC50 (second compound 1 µM): 5.21 | pIC50 (second compound 3.16 µM): 6.99 | pIC50 (second compound 10 µM): > 7.50 | viability, T/C (second compound 0.0316 µM, first compound 0.0316 µM): 91.2% | viability, T/C (second compound 0.0316 µM, first compound 0.1 µM): 101% | viability, T/C (second compound 0.0316 µM, first compound 0.316 µM): 86.4% | viability, T/C (second compound 0.0316 µM, first compound 1 µM): 87.3% | viability, T/C (second compound 0.0316 µM, first compound 3.16 µM): 67.1% | viability, T/C (second compound 0.0316 µM, first compound 10 µM): 48.3% | viability, T/C (second compound 0.1 µM, first compound 0.0316 µM): 84% | viability, T/C (second compound 0.1 µM, first compound 0.1 µM): 93.5% | viability, T/C (second compound 0.1 µM, first compound 0.316 µM): 76.1% | viability, T/C (second compound 0.1 µM, first compound 1 µM): 72.5% | viability, T/C (second compound 0.1 µM, first compound 3.16 µM): 59.4% | viability, T/C (second compound 0.1 µM, first compound 10 µM): 44.2% | viability, T/C (second compound 0.316 µM, first compound 0.0316 µM): 83% | viability, T/C (second compound 0.316 µM, first compound 0.1 µM): 75.5% | viability, T/C (second compound 0.316 µM, first compound 0.316 µM): 66.7% | viability, T/C (second compound 0.316 µM, first compound 1 µM): 72.1% | viability, T/C (second compound 0.316 µM, first compound 3.16 µM): 55.6% | viability, T/C (second compound 0.316 µM, first compound 10 µM): 51.8% | viability, T/C (second compound 1 µM, first compound 0.0316 µM): 58% | viability, T/C (second compound 1 µM, first compound 0.1 µM): 64.6% | viability, T/C (second compound 1 µM, first compound 0.316 µM): 66.7% | viability, T/C (second compound 1 µM, first compound 1 µM): 56.8% | viability, T/C (second compound 1 µM, first compound 3.16 µM): 53% | viability, T/C (second compound 1 µM, first compound 10 µM): 47.4% | viability, T/C (second compound 3.16 µM, first compound 0.0316 µM): 57% | viability, T/C (second compound 3.16 µM, first compound 0.1 µM): 50.5% | viability, T/C (second compound 3.16 µM, first compound 0.316 µM): 48.1% | viability, T/C (second compound 3.16 µM, first compound 1 µM): 45.1% | viability, T/C (second compound 3.16 µM, first compound 3.16 µM): 51.9% | viability, T/C (second compound 3.16 µM, first compound 10 µM): 47% | viability, T/C (second compound 10 µM, first compound 0.0316 µM): 46.6% | viability, T/C (second compound 10 µM, first compound 0.1 µM): 41.9% | viability, T/C (second compound 10 µM, first compound 0.316 µM): 49.3% | viability, T/C (second compound 10 µM, first compound 1 µM): 39.4% | viability, T/C (second compound 10 µM, first compound 3.16 µM): 40.3% | viability, T/C (second compound 10 µM, first compound 10 µM): 37.6%
